Read-outs that look alike come from different tables or passages of the source.
Tests used:
[1] = tested on: formation of osteoclasts in co-culture of bone marrow cells and osteoblasts; test: Osteoclastogenesis inhibition via co-culture system (TRAP staining); format: cell-based, mice; conditions: 1 μM compound, 7 days co-culture, TRAP-positive multinucleated osteoclasts vs vehicle control; for inhibition at 1 µM: Mus musculus, Osteoclast, 168 h
Experimental: Osteoclastogenesis inhibitory effects of the compounds of the present invention were evaluated via a co-culture system (Reference: Endocrinology 137(1996), 2187 to 2190, E. Jimi et al.). A specific experimental method is as follows.
1) Preparation of Bone Marrow Cells and Osteoblasts
Femora and tibia were aseptically dissected from 6 to 8-week-old male ddY mice to harvest bone marrow cells by a conventional method using a syringe. In brief, tissues were removed from the dissected bone, the bone ends were cut off with scissors, and the bone marrow was isolated by pushing a medium-containing syringe (23G) against the one end of the cut bone. The isolated bone marrow was subjected to repeated piston movement of a syringe such that single cells were obtained (Reference: Endocrinology 123(1988), 2600 to 2602, Takahashi et al.). After removal of red blood cells within the bone marrow, the bone marrow cells recovered by centrifugation were placed in an α-MEM supplemented with 10% fetal bovine serum (FBS), followed by counting of nucleated cells and then were immediately used for a co-culture system.
2) Osteoclastogenesis Inhibition Experiment Via Co-Culture System
As the medium used for a co-culture system, a differentiation medium with the addition of differentiation factors 1α,25-dihydroxyvitamin D3 (10^−8M) and dexamethasone (10^−8M) to a-MEM supplemented with 10% FBS was used for the induction of osteoclastogenesis. First, the compounds dissolved in dimethyl sulfoxide (DMSO) at a concentration of 1 mM were diluted to 2 μM using the above-mentioned differentiation medium. As a vehicle control group, 0.2% (v/v) DMSO was added to the medium. 100 μL/well of each medium was added to 96-well plates. In addition, the above prepared bone marrow cells and osteoblasts were plated onto 96-well plates at a density of 1×10^5 cells/50 μL/well and 3×10^3 cells/50 μL/well, respectively. The total volume/well was 200 μL and the final compound concentration was 1 μM. The control group was 0.1% DMSO. The cells were cultured with exchange of the culture media with fresh media containing differentiation factors and test materials at an interval of 2 to 3 days.
7 days after culturing of cells, the formation of multinucleated osteoclasts was confirmed by microscopic examination, the medium was removed from the wells and then the cells were fixed in a 10% phosphate-buffered formalin solution. The degree of formation of mature osteoclasts was measured taking advantage of the characteristics of osteoclasts showing a positive reaction to a tartrate-resistant acid phosphatase (TRAP) staining solution. The TRAP staining solution was prepared in a manner such that naphthol AS-MS phosphate as a substrate and a coloring agent (Fast Red Violet LB salt) were dissolved in N,N-dimethylformamide, and a 0.1N NaHCO3 buffer solution containing 50 mM of tartaric acid was added thereto. Among the TRAP-positive cells under a light microscope, multinucleated osteoclasts having 6 to 7 nuclei were regarded as mature osteoclasts.
The degree of inhibition of osteoclastogenesis was calculated according to the following equation 1. The results are summarized in Table 27 below (Experiments were carried out for 4 wells/experimental group (n=4), and the results are given in terms of mean±standard deviation)
Inhibition of osteoclastogenesis(%)=(1−numbers of osteoclasts observed in experimental group/numbers of osteoclasts observed in vehicle control group)×100(%) [Equation 1]

[2] = tested on: Osteoblasts (Calvarial cells); conditions: ICR, mouse, 72 h, 1 μM
[3] = tested on: Osteoblasts (Calvarial cells); test: Cytotoxicity test (MTT); conditions: 1 μM compound, 72 hours, in comparison with vehicle control

| Structure (SMILES) | inhibition at 1 µM [1] [%] | Cell viability (%) Calvarial cell [2] [%] | Osteoclastogenesis inhibition (%) 1 μM [1] [%] | Cell viability (%) Calvarial cell [3] [%] |
| --- | --- | --- | --- | --- |
| Cc1ccc(Nc2nc(-n3ccnc3C(C)C)ccc2[N+](=O)[O-])cc1 [Compound 7, 2-(4-methylphenylamino)-6-[(2-isopropyl)imidazol-1-yl]-3-nitropyridine] | 100 | 103 |  |  |
| Cc1ccc(Nc2nc(NCCc3cccnc3)ccc2[N+](=O)[O-])cc1 [Compound 10, 2-(4-methylphenylamino)-6-[2-(3-pyridyl)ethylamino]-3-nitropyridine] | 64 | 116 |  |  |
| Cc1ccc(Nc2nc(N3CCNCC3)ccc2[N+](=O)[O-])cc1 [Compound 12, 2-(4-methylphenylamino)-6-(piperazin-1-yl)-3-nitropyridine] | 63 | 103 |  |  |
| COc1ccc(Nc2nc(N3CCC(N)CC3)ccc2[N+](=O)[O-])cc1 [Compound 28, 2-(4-methoxyphenylamino)-6-(4-aminopiperidino)-3-nitropyridine] | 88 | 89 |  |  |
| CC(C)(C)c1ccc(Nc2nc(N3CCNCC3)ccc2[N+](=O)[O-])cc1 [Compound 42, 2-[4-(t-butyl)phenylamino]-6-(piperazin-1-yl)-3-nitropyridine] | 96 | 103 |  |  |
| CSc1ccc(Nc2nc(NCCCn3ccnc3)ccc2[N+](=O)[O-])cc1 [Compound 55, 2-[4-(methylsulfanyl)phenylamino]-6-[(3-imidazol-1-yl)propylamino]-3-nitropyridine] | 98 | 105 |  |  |
| CN(CC1OCCO1)c1ccc([N+](=O)[O-])c(Nc2ccc(-n3ccnc3)cc2)n1 [Compound 89] |  |  | 73 | 89 |
| CCN(CC)c1ccc(Nc2nc(NCC(C)C)ccc2[N+](=O)[O-])cc1F [Compound 177, 2-[(3-fluoro-4-diethylamino)phenylamino]-6-(isobutylamino)-3-nitropyridine] |  |  | 61 | 107 |
| O=[N+]([O-])c1ccc(NCc2cccnc2)nc1Nc1ccc(N2CCOCC2)c(F)c1 [Compound 197, 2-[(3-fluoro-4-morpholino)phenylamino]-6-[(3-pyridyl)methylamino]-3-nitropyridine] |  |  | 81 | 95 |
| O=[N+]([O-])c1ccc(NCc2ccncc2)nc1Nc1ccc(N2CCOCC2)c(F)c1 [Compound 198, 2-[(3-fluoro-4-morpholino)phenylamino]-6-[(4-pyridyl)methylamino]-3-nitropyridine] |  |  | 84 | 96 |
| NC1CCN(c2ccc([N+](=O)[O-])c(Nc3ccc(N4CCOCC4)c(F)c3)n2)CC1 [Compound 202, 2-[(3-fluoro-4-morpholino)phenylamino]-6-(4-aminopiperidino)-3-nitropyridine] |  |  | 90 | 96 |
| O=[N+]([O-])c1ccc(NCc2cccnc2)nc1Nc1ccc(N2CCSCC2)c(F)c1 [Compound 209, 2-[(3-fluoro-4-thiomorpholino)phenylamino]-6-[(3-pyridyl)methylamino]-3-nitropyridine] |  |  | 85 | 99 |
| O=[N+]([O-])c1ccc(NCc2ccncc2)nc1Nc1ccc(N2CCSCC2)c(F)c1 [Compound 210, 2-[(3-fluoro-4-thiomorpholino)phenylamino]-6-[(4-pyridyl)methylamino]-3-nitropyridine] |  |  | 70 | 105 |
| CN1CCN(c2ccc([N+](=O)[O-])c(Nc3ccc(N4CCSCC4)c(F)c3)n2)CC1 [Compound 212, 2-[(3-fluoro-4-thiomorpholino)phenylamino]-6-(4-methylpiperazin-1-yl)-3-nitropyridine] |  |  | 85 | 100 |
| NC1CCN(c2ccc([N+](=O)[O-])c(Nc3ccc(N4CCSCC4)c(F)c3)n2)CC1 [Compound 214, 2-[(3-fluoro-4-thiomorpholino)phenylamino]-6-(4-aminopiperidino)-3-nitropyridine] |  |  | 98 | 103 |
| O=[N+]([O-])c1ccc(NCc2cccnc2)nc1Nc1ccc(N2CCNCC2)c(F)c1 [Compound 220, 2-[(3-fluoro-4-piperazino)phenylamino]-6-[(3-pyridyl)methylamino]-3-nitropyridine] |  |  | 82 | 93 |
| O=[N+]([O-])c1ccc(NCc2ccncc2)nc1Nc1ccc(N2CCNCC2)c(F)c1 [Compound 221, 2-[(3-fluoro-4-piperazino)phenylamino]-6-[(4-pyridyl)methylamino]-3-nitropyridine] |  |  | 89 | 91 |
| O=[N+]([O-])c1ccc(N2CCC(O)CC2)nc1Nc1ccc(N2CCCCC2)c(F)c1 [Compound 226, 2-[(3-fluoro-4-piperidino)phenylamino]-6-(4-hydroxypiperidino)-3-nitropyridine] |  |  | 66 | 104 |
| CC(C)c1nccn1-c1ccc([N+](=O)[O-])c(Nc2ccc(N3CCCCC3)c(F)c2)n1 [Compound 228, 2-[(3-fluoro-4-piperidino)phenylamino]-6-[(2-isopropyl)imidazol-1-yl]-3-nitropyridine] |  |  | 73 | 99 |
| CN1CCN(c2ccc([N+](=O)[O-])c(Nc3ccc(N4CCCCC4)c(F)c3)n2)CC1 [Compound 232, 2-[(3-fluoro-4-piperidino)phenylamino]-6-(4-methylpiperazin-1-yl)-3-nitropyridine] |  |  | 86 | 100 |
| O=[N+]([O-])c1ccc(N2CCNCC2)nc1Nc1ccc(N2CCCCC2)c(F)c1 [Compound 233, 2-[(3-fluoro-4-piperidino)phenylamino]-6-(piperazin-1-yl)-3-nitropyridine] |  |  | 96 | 102 |
| NC1CCN(c2ccc([N+](=O)[O-])c(Nc3ccc(N4CCCCC4)c(F)c3)n2)CC1 [Compound 234, 2-[(3-fluoro-4-piperidino)phenylamino]-6-(4-aminopiperidino)-3-nitropyridine] |  |  | 100 | 94 |
| CC(C)CNc1ccc([N+](=O)[O-])c(Nc2ccc(N3CCC(O)CC3)c(F)c2)n1 [Compound 238, 2-{[3-fluoro-4-(4-hydroxypiperidino)]phenylamino}-6-(isobutylamino)-3-nitropyridine] |  |  | 75 | 106 |
| O=[N+]([O-])c1ccc(NCc2cccnc2)nc1Nc1ccc(N2CCC(O)CC2)c(F)c1 [Compound 241, 2-{[3-fluoro-4-(4-hydroxypiperidino)]phenylamino}-6-[(3-pyridyl)methylamino]-3-nitropyridine] |  |  | 87 | 100 |
| O=[N+]([O-])c1ccc(NCc2ccncc2)nc1Nc1ccc(N2CCC(O)CC2)c(F)c1 [Compound 242, 2-{[3-fluoro-4-(4-hydroxypiperidino)]phenylamino}-6-[(4-pyridyl)methylamino]-3-nitropyridine] |  |  | 93 | 114 |
| NC1CCN(c2ccc([N+](=O)[O-])c(Nc3ccc(N4CCC(O)CC4)c(F)c3)n2)CC1 [Compound 246, 2-{[3-fluoro-4-(4-hydroxypiperidino)]phenylamino}-6-(4-aminopiperidino)-3-nitropyridine] |  |  | 80 | 105 |

Reference: patent US20110306606A1, “NOVEL 2,6-SUBSTITUTED-3-NITROPYRIDINE DERIVATIVE, METHOD FOR PREPARING SAME, AND PHARMACEUTICAL COMPOSITION INCLUDING SAME” (priority 2008, published 2011)
